Measurements taken from BindingDB's records for doi:10.1021/bi060184f (Abbott Laboratories, 2006).
pKi: −log10 of the molar value.

Tests used:
[1] = target: Dipeptidyl peptidase 4 (Homo sapiens, UniProt P27487); assay: DPP Inhibition Assay; conditions: pH 7.5; 22 °C
[2] = target: Dipeptidyl peptidase 8 (Homo sapiens, UniProt Q6V1X1); assay: DPP Inhibition Assay; conditions: pH 7.5; 22 °C
Sequence of Dipeptidyl peptidase 8 (Q6V1X1 whole entry): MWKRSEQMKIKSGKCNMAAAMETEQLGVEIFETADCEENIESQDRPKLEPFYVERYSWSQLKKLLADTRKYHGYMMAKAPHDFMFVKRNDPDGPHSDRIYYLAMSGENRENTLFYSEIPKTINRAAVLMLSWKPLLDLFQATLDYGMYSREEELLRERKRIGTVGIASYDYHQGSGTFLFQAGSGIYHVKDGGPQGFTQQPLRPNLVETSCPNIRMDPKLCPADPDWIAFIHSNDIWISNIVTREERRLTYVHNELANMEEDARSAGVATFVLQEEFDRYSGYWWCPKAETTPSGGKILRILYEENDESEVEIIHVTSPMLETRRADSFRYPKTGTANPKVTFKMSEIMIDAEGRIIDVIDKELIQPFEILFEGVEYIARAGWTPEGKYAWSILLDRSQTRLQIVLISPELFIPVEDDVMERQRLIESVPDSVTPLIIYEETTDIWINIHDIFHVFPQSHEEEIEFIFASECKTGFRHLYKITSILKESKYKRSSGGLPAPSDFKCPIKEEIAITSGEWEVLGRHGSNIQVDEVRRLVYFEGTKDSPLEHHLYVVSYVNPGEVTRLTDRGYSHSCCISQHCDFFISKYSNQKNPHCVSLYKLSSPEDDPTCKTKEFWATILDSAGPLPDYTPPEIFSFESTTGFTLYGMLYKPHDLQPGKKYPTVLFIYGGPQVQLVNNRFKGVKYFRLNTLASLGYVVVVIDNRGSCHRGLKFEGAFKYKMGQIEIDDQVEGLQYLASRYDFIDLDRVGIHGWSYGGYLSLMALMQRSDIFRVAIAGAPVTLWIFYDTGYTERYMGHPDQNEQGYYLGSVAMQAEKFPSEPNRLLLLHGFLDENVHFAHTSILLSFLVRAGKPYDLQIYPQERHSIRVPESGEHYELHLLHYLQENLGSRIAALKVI

Sequence of Dipeptidyl peptidase 4 (P27487 whole entry): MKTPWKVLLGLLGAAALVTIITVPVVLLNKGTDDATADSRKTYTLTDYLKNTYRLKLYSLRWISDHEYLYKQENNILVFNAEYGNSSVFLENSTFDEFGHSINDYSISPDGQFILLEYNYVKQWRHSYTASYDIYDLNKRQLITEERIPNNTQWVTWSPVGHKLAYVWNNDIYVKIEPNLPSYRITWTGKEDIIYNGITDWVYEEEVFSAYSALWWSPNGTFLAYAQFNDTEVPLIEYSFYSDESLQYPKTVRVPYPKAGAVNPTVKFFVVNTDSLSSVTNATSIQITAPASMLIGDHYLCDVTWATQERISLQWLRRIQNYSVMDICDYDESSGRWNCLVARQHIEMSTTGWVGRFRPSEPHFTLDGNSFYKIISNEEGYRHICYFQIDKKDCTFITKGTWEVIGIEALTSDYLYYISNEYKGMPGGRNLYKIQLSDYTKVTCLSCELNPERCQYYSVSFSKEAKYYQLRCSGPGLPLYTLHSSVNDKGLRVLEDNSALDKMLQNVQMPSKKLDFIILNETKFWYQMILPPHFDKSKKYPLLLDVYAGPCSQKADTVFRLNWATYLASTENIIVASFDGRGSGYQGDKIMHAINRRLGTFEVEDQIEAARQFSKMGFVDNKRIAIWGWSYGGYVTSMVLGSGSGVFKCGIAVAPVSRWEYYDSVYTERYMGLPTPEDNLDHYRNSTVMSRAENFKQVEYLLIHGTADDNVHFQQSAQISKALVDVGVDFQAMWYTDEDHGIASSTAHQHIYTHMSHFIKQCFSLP

| SMILES | pKi [1] | pKi [2] |
| --- | --- | --- |
| Cn1c(=O)c2c(nc(N3CCC[C@@H](N)C3)n2Cc2ccccc2C#N)n(C)c1=O [Xanthine mimetic compound 6] | 8.70 | < 4.52 |
| CC#C[C@H]1CC[C@@H](C#N)N1C(=O)[C@@H](N)C1CCCC1 [(2S,5R)-1-((2S)-2-amino-2-cyclopentylethanoyl)-5-prop-1-ynylpyrrolidine-2-carbonitrile] | – | < 4.52 |
